{"source": "patent US7138361B2", "about": "“Herbicidal heterocycles” (E. I. du Pont de Nemours and Company, priority 2000, dated 2006)", "type_in_all_cases": "in vivo", "key": {"[1]": {"tested_on": "cocklebur (Xanthium strumarium)", "assay": "Test B preemergence", "outline": "(§1)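 Pre: seeded pots sprayed, chemical in non-phytotoxic solvent/surfactant mix. Post: plants 2–18 cm, 1–4 leaf, same formulation. Greenhouse 13–15 d; visual % control vs untreated, 0–100 scale.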"}, "rice (Oryza saliva) [2]": {"tested_on": "rice (Oryza saliva)", "assay": "Test B preemergence", "outline": "as §1"}, "[3]": {"tested_on": "giant foxtail (Setaria faberii)", "assay": "Test B preemergence", "outline": "as §1"}, "[4]": {"tested_on": "Surinam grass (Brachiaria decumbens)", "assay": "Test B preemergence", "outline": "as §1"}, "corn (Zea mays) [5]": {"tested_on": "corn (Zea mays)", "assay": "Test B preemergence", "outline": "as §1"}, "[6]": {"tested_on": "morning glory (Ipomoea hederacea)", "assay": "Test B preemergence", "outline": "as §1"}, "[7]": {"tested_on": "barnyardgrass (Echinochloa crus-galli)", "assay": "Test B preemergence", "outline": "as §1"}, "[8]": {"tested_on": "crabgrass (Digitaria sanguinalis)", "assay": "Test B preemergence", "outline": "as §1"}, "[9]": {"tested_on": "lambsquarters (Chenopodium album)", "assay": "Test B preemergence", "outline": "as §1"}, "[10]": {"tested_on": "pigweed (Amaranthus retroflexus)", "assay": "Test B preemergence", "outline": "as §1"}, "[11]": {"tested_on": "velvetleaf (Abutilon theophrasti)", "assay": "Test B preemergence", "outline": "as §1"}, "[12]": {"tested_on": "cocklebur (Xanthium strumarium)", "assay": "Test B postemergence", "settings": "13 to 15 days", "outline": "as §1"}, "[13]": {"tested_on": "giant foxtail (Setaria faberii)", "assay": "Test B postemergence", "settings": "13 to 15 days", "outline": "as §1"}, "[14]": {"tested_on": "blackgrass (Alopecurus myosuroides)", "assay": "Test B postemergence", "settings": "13 to 15 days", "outline": "as §1"}, "[15]": {"tested_on": "Surinam grass (Brachiaria decumbens)", "assay": "Test B postemergence", "settings": "13 to 15 days", "outline": "as §1"}, "wild oat (Avena fatua)": {"tested_on": "wild oat (Avena fatua)", "assay": "Test B postemergence", "settings": "13 to 15 days", "outline": "as §1"}, "corn (Zea mays) [16]": {"tested_on": "corn (Zea mays)", "assay": "Test B postemergence", "settings": "13 to 15 days", "outline": "as §1"}, "[17]": {"tested_on": "morning glory (Ipomoea hederacea)", "assay": "Test B postemergence", "settings": "13 to 15 days", "outline": "as §1"}, "[18]": {"tested_on": "barnyardgrass (Echinochloa crus-galli)", "assay": "Test B postemergence", "settings": "13 to 15 days", "outline": "as §1"}, "[19]": {"tested_on": "crabgrass (Digitaria sanguinalis)", "assay": "Test B postemergence", "settings": "13 to 15 days", "outline": "as §1"}, "[20]": {"tested_on": "lambsquarters (Chenopodium album)", "assay": "Test B postemergence", "settings": "13 to 15 days", "outline": "as §1"}, "[21]": {"tested_on": "pigweed (Amaranthus retroflexus)", "assay": "Test B postemergence", "settings": "13 to 15 days", "outline": "as §1"}, "[22]": {"tested_on": "velvetleaf (Abutilon theophrasti)", "assay": "Test B postemergence", "settings": "13 to 15 days", "outline": "as §1"}, "[23]": {"tested_on": "wheat (Triticum aestivum)", "assay": "Test B postemergence", "settings": "13 to 15 days", "outline": "as §1"}, "rice (Oryza saliva) [24]": {"tested_on": "rice (Oryza saliva)", "assay": "Test C flooded paddy test", "settings": "for Rice plant response rating: Flooded Paddy, scale 0 to 100, 0 no effect, 100 complete control; for Plant response rating, Rice: flooded paddy test, scale 0 to 100 (0 no effect, 100 complete control)", "outline": "(§2)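 Plants were grown to the 2-leaf stage under flooded paddy conditions and treated. They were then kept in a greenhouse for 12 to 14 days and visually rated against untreated controls on a 0–100 scale, where 0 is no effect and 100 is complete control.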"}, "[25]": {"tested_on": "duck salad (Heteranthera limosa)", "assay": "Test C flooded paddy test", "settings": "for Ducksalad plant response rating: Flooded Paddy, scale 0 to 100, 0 no effect, 100 complete control; for Plant response rating, Ducksalad: flooded paddy test, scale 0 to 100 (0 no effect, 100 complete control)", "outline": "as §2"}, "[26]": {"tested_on": "barnyardgrass (Echinochloa crus-galli)", "assay": "Test C flooded paddy test", "settings": "for Barnyardgrass plant response rating: Flooded Paddy, scale 0 to 100, 0 no effect, 100 complete control; for Plant response rating, Barnyardgrass: flooded paddy test, scale 0 to 100 (0 no effect, 100 complete control)", "outline": "as §2"}, "[27]": {"tested_on": "smallflower flatsedge (Cyperus difformis)", "assay": "Test C flooded paddy test", "settings": "for Flatsedge plant response rating: Flooded Paddy, scale 0 to 100, 0 no effect, 100 complete control; for Plant response rating, Flatsedge: flooded paddy test, scale 0 to 100 (0 no effect, 100 complete control)", "outline": "as §2"}, "rice (Oryza saliva) [28]": {"tested_on": "rice (Oryza saliva)", "assay": "Test B flooded paddy test", "settings": "Rate 1000 g/ha, scale of 0 to 100 where 0 is no effect and 100 is complete control, visually evaluated after 13 to 15 days", "outline": "(§3)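 2-leaf plants, flooded paddy; greenhouse 13–15 d post-treatment; visual rating vs controls, 0–100 scale (0 = no effect, 100 = complete control); dash = no result.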"}, "[29]": {"tested_on": "duck salad (Heteranthera limosa)", "assay": "Test B flooded paddy test", "settings": "Rate 1000 g/ha, scale of 0 to 100 where 0 is no effect and 100 is complete control, visually evaluated after 13 to 15 days", "outline": "as §3"}, "[30]": {"tested_on": "barnyardgrass (Echinochloa crus-galli)", "assay": "Test B flooded paddy test", "settings": "Rate 1000 g/ha, scale of 0 to 100 where 0 is no effect and 100 is complete control, visually evaluated after 13 to 15 days", "outline": "as §3"}, "[31]": {"tested_on": "smallflower flatsedge (Cyperus difformis)", "assay": "Test B flooded paddy test", "settings": "Rate 1000 g/ha, scale of 0 to 100 where 0 is no effect and 100 is complete control, visually evaluated after 13 to 15 days", "outline": "as §3"}, "[32]": {"settings": "Preemergence, Rate 500 g/ha, scale 0 to 100, 0 no effect, 100 complete control"}, "[33]": {"settings": "preemergence, Rate 125 g/ha, scale of 0 to 100 where 0 is no effect and 100 is complete control, 13 to 15 days"}, "[34]": {"settings": "Rate 125 g/ha, scale 0 (no effect) to 100 (complete control)"}, "[35]": {"settings": "Rate 500 g/ha, scale 0 to 100, 0 is no effect, 100 is complete control"}}, "data": [{"smiles": "CC(C)Oc1ccn(C2CCN(c3cccc(C(F)(F)F)c3)C2=O)n1", "note": "(centres unmarked) [Compound 59]", "values": [{"measurement": "Plant response rating, Cocklebur", "setting": "[1]; [32]", "value": 0}, {"measurement": "Plant response rating, Cocklebur", "setting": "[1]; [33]", "value": 0}, {"measurement": "Plant response rating, Rice", "setting": "rice (Oryza saliva) [2]; [32]", "value": 50}, {"measurement": "Plant response rating, Rice", "setting": "rice (Oryza saliva) [2]; [33]", "value": 0}, {"measurement": "Plant response rating, Foxtail, Giant", "setting": "[3]; [32]", "value": 70}, {"measurement": "Plant response rating, Foxtail, Giant", "setting": "[3]; [33]", "value": 0}, {"measurement": "Plant response rating, Surinam grass", "setting": "[4]; [32]", "value": 80}, {"measurement": "Plant response rating, Surinam grass", "setting": "[4]; [33]", "value": 60}, {"measurement": "Plant response rating, Corn", "setting": "corn (Zea mays) [5]; [32]", "value": 0}, {"measurement": "Plant response rating, Corn", "setting": "corn (Zea mays) [5]; [33]", "value": 0}, {"measurement": "Plant response rating, Morningglory", "setting": "[6]; [32]", "value": 0}, {"measurement": "Plant response rating, Morningglory", "setting": "[6]; [33]", "value": 0}, {"measurement": "Plant response rating, Barnyardgrass", "setting": "[7]; [32]", "value": 90}, {"measurement": "Plant response rating, Barnyardgrass", "setting": "[7]; [33]", "value": 0}, {"measurement": "Plant response rating, Crabgrass", "setting": "[8]; [32]", "value": 90}, {"measurement": "Plant response rating, Crabgrass", "setting": "[8]; [33]", "value": 20}, {"measurement": "Plant response rating, Lambsquarters", "setting": "[9]; [32]", "value": 100}, {"measurement": "Plant response rating, Lambsquarters", "setting": "[9]; [33]", "value": 0}, {"measurement": "Plant response rating, Pigweed", "setting": "[10]; [32]", "value": 0}, {"measurement": "Plant response rating, Pigweed", "setting": "[10]; [33]", "value": 0}, {"measurement": "Plant response rating, Velvetleaf", "setting": "[11]; [32]", "value": 0}, {"measurement": "Plant response rating, Velvetleaf", "setting": "[11]; [33]", "value": 0}, {"measurement": "Plant response rating, Cocklebur", "setting": "[12]; [34]", "value": 0}, {"measurement": "Plant response rating, Cocklebur", "setting": "[12]; [35]", "value": 0}, {"measurement": "Plant response rating, Foxtail, Giant", "setting": "[13]; [34]", "value": 0}, {"measurement": "Plant response rating, Foxtail, Giant", "setting": "[13]; [35]", "value": 0}, {"measurement": "Plant response rating, Blackgrass", "setting": "[14]; [34]", "value": 0}, {"measurement": "Plant response rating, Blackgrass", "setting": "[14]; [35]", "value": 0}, {"measurement": "Plant response rating, Surinam grass", "setting": "[15]; [34]", "value": 0}, {"measurement": "Plant response rating, Surinam grass", "setting": "[15]; [35]", "value": 0}, {"measurement": "Plant response rating, Wild Oat", "setting": "wild oat (Avena fatua); [34]", "value": 0}, {"measurement": "Plant response rating, Wild Oat", "setting": "wild oat (Avena fatua); [35]", "value": 0}, {"measurement": "Plant response rating, Corn", "setting": "corn (Zea mays) [16]; [34]", "value": 0}, {"measurement": "Plant response rating, Corn", "setting": "corn (Zea mays) [16]; [35]", "value": 0}, {"measurement": "Plant response rating, Morningglory", "setting": "[17]; [34]", "value": 0}, {"measurement": "Plant response rating, Morningglory", "setting": "[17]; [35]", "value": 0}, {"measurement": "Plant response rating, Barnyardgrass", "setting": "[18]; [34]", "value": 0}, {"measurement": "Plant response rating, Barnyardgrass", "setting": "[18]; [35]", "value": 0}, {"measurement": "Plant response rating, Crabgrass", "setting": "[19]; [34]", "value": 0}, {"measurement": "Plant response rating, Crabgrass", "setting": "[19]; [35]", "value": 0}, {"measurement": "Plant response rating, Lambsquarters", "setting": "[20]; [34]", "value": 0}, {"measurement": "Plant response rating, Lambsquarters", "setting": "[20]; [35]", "value": 0}, {"measurement": "Plant response rating, Pigweed", "setting": "[21]; [34]", "value": 0}, {"measurement": "Plant response rating, Pigweed", "setting": "[21]; [35]", "value": 0}, {"measurement": "Plant response rating, Velvetleaf", "setting": "[22]; [34]", "value": 0}, {"measurement": "Plant response rating, Velvetleaf", "setting": "[22]; [35]", "value": 0}, {"measurement": "Plant response rating, Wheat", "setting": "[23]; [34]", "value": 0}, {"measurement": "Plant response rating, Wheat", "setting": "[23]; [35]", "value": 0}, {"measurement": "Rice plant response rating", "setting": "rice (Oryza saliva) [24]; Rate 250 g/ha", "value": 0}, {"measurement": "Rice plant response rating", "setting": "rice (Oryza saliva) [24]; Rate 500 g/ha", "value": 20}, {"measurement": "Plant response rating, Rice", "setting": "rice (Oryza saliva) [24]; Rate 62 g/ha", "value": 0}, {"measurement": "Plant response rating, Rice", "setting": "rice (Oryza saliva) [24]; Rate 125 g/ha", "value": 0}, {"measurement": "Ducksalad plant response rating", "setting": "[25]; Rate 250 g/ha", "value": 0}, {"measurement": "Ducksalad plant response rating", "setting": "[25]; Rate 500 g/ha", "value": 0}, {"measurement": "Plant response rating, Ducksalad", "setting": "[25]; Rate 62 g/ha", "value": 0}, {"measurement": "Plant response rating, Ducksalad", "setting": "[25]; Rate 125 g/ha", "value": 0}, {"measurement": "Barnyardgrass plant response rating", "setting": "[26]; Rate 250 g/ha", "value": 0}, {"measurement": "Barnyardgrass plant response rating", "setting": "[26]; Rate 500 g/ha", "value": 30}, {"measurement": "Plant response rating, Barnyardgrass", "setting": "[26]; Rate 62 g/ha", "value": 0}, {"measurement": "Plant response rating, Barnyardgrass", "setting": "[26]; Rate 125 g/ha", "value": 0}, {"measurement": "Flatsedge plant response rating", "setting": "[27]; Rate 250 g/ha", "value": 0}, {"measurement": "Flatsedge plant response rating", "setting": "[27]; Rate 500 g/ha", "value": 30}, {"measurement": "Plant response rating, Flatsedge", "setting": "[27]; Rate 62 g/ha", "value": 0}, {"measurement": "Plant response rating, Flatsedge", "setting": "[27]; Rate 125 g/ha", "value": 0}, {"measurement": "Plant response rating, Rice", "setting": "rice (Oryza saliva) [28]", "value": 20}, {"measurement": "Plant response rating, Ducksalad", "setting": "[29]", "value": 70}, {"measurement": "Plant response rating, Barnyardgrass", "setting": "[30]", "value": 100}, {"measurement": "Plant response rating, Flatsedge", "setting": "[31]", "value": 90}]}]}
